Measurements as given in patent US11491155B2, “Salt of a pyrimido[6,1-A]isoquinolin-4-one compound” (VERONA PHARMA PLC, priority 2015, dated 2022).

Legend:
[1] = Primary particle size analysis by laser light diffraction (Mastersizer 2000); assay type: physicochemical; details: micronised, mean n=3
Experimental: A Mastersizer 2000 fitted with a Scirocco 2000 dry powder dispersion unit (Malvern Instruments Ltd, UK) was used to analyse the primary particle size of the micronised RPL554 and salt variants. The salts (50 mg) were automatically sampled via a vibrating feed control at a feeder rate of 60% and dispersed in compressed air at a pressure of 3 bar.

[2] = Aerosol performance of DPI formulations (Cyclohaler, NGI); assay type: physicochemical
Experimental: Capsules were hand filled with 20 mg of the 1% w/w RPL554 free base or salt variants: lactose blends, i.e. 200 μg salt per capsule, the fill weight of each capsule was recorded. Due to differences in the molecular weights of the RPL554 salt forms, the amount of RPL554 emitted per actuation varied as a function of molecular weight. The formulations were prepared with no adjustment for differences in molecular weight of the salts.
The powders were delivered via the Cyclohaler® DPI (PCH Pharmachemie, BV, The Netherlands). The Cyclohaler® DPI is a low resistance device and was operated at a flow rate of 90 L/min for 2.7 seconds. The cut off diameters for the NGI collection stages were calculated for the 90 L/min flow rate using the NGI User Guide (MSP Corporation, 2008).
The ED, FPD and FPF were determined from inertial impaction tests performed following the deposition of 5 capsules of each formulation into the NGI. For each capsule tested the combined weight of the Cyclohaler® and capsule was determined before and after operation to check that the dose had been delivered. The NGI was fitted with a pre-separator for these determinations. The central cup of the pre-separator was filled with 15 mL of diluent. Following deposition, the solution was recovered in a 20 mL volumetric flask and made up to volume with diluent. RPL554 was quantitatively recovered from the device, induction port and each of the NGI collection stages with 10 mL of diluent.
The volume of diluent used for each sample was selected to ensure RPL554 concentrations were above the limit of quantitation.

[3] = Intrinsic dissolution of compressed tablet, pH 7.0, 37° C. (Sirius inForm); assay type: physicochemical; details: for mass dissolved: before precipitation
Experimental: The dissolution assay (pH-dependent sample dissolution) was investigated using the Sirius inForm.
Dissolution of a compressed tablet of the compound was monitored in a pH 7.0 aqueous dissolution experiment (0.15 M NaCl) at 37° C. using UV-absorption spectroscopy in 2 hour experiments. A tablet with a diameter of 3 mm, requiring approximate weights of 10 mg was compressed under a weight of 100 kg load force. Only one face of the tablet was exposed to the dissolution medium, which contained a 0.01 M acetate/phosphate buffer system to minimise perturbation of the experimental pH from dissolution of the drug.
Stirring of the solution was continuous and at a constant rate of 100 rpm. The absorption data was converted to absolute sample weights using previously determined, pH-dependent, molar extinction coefficients. An appropriate wavelength range was chosen to ensure that spectroscopic data with an absorption value of <1.3 was analysed, avoiding erroneous dissolution results due to saturation of the UV light source.

[4] = Solubility of RPL554 salts in saline solutions, water and aqueous buffer solutions at 25° C. (HPLC); assay type: physicochemical; details: 24 hours
How it was run: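 Salts or free base (ca 50 mg) suspended in 1 ml of buffered 0.9% saline (pH 3.5–6.5), 0.7–1.1% saline or deionised water, agitated 24 h at 25° C. Filtrates analysed by HPLC with single-point calibration; solubility expressed as RPL554 free base, not salt.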

[5] = Physico-chemical characteristics of salt candidates: solubility in water, pH of aqueous suspension/solution, form post water maturation; details: listed as Methane sulfonic
Experimental: The physico-chemical characteristics of the salt candidates were determined.

[6] = Solubility of RPL554 and salts in pMDI propellant systems; assay type: physicochemical
Experimental: Quantitative assessment of the solubility of RPL554 and salt variants in the propellant systems of selected pMDI formulations (three replicates of each formulation) was performed. pMDIs were directly coupled to an adaptor fitted with a 0.20 μm filter unit connected, in series to a 21 G needle, which was inserted via a rubber septum, into a cooled multi-dose glass vial. A 19 G filter needle was inserted through the septum to aid evaporation of propellant from the vial. Prior to the filtration process the vial was cooled in a mixture of dry ice and acetone to ensure that the pressure within the vial was reduced in order to facilitate collection of the output from the pMDI. Ten consecutive actuations of the pMDI were fired through the filter and collected in the vial. Between actuations the canister was shaken for approximately 10 seconds. The pMDI unit was weighed before and after the filtering procedure. The filtrate was stored at room temperature and allowed to evaporate to dryness.
Samples were recovered by carefully rinsing the inside of the vials with 1 mL of recovery solution before transfer to HPLC vials for analysis. The estimated % of RPL554 solubilised within the canister was calculated from the starting mass of RPL554 within the canisters, which in turn was calculated using the theoretical molecular weight values of the RPL554 free base and salt variants shown in Table 13. The theoretical molecular weight estimates of the salts were provided by Verona.

[7] = RPL554 content and content uniformity of 1% w/w lactose powder blends; assay type: physicochemical
Experimental: Batches (approximately 5 g) of 1% w/w RPL554 free base or salt variants: lactose blends were prepared. In brief, the RPL554 free base or salt plus a small quantity of lactose was passed through a 38 μm sieve. The sieved material plus the remaining lactose was mixed in a glass mortar prior to transfer to a stainless steel screw cap jar and further mixing (10 minutes at 46 rpm) conducted using a Turbula blender. The composition of the dry powder blend was 0.05 g API and 4.95 g lactose.
In order to determine the content uniformity of the blends, aliquots (approx. 20 mg) of powder were sampled from each blend, accurately weighed, and diluted to volume in 10 mL volumetric flasks with diluent. The flasks were sonicated for 3 minutes before samples were transferred to HPLC vials for analysis.

[8] = pH 7.0, 0.15 M NaCl, 37° C., listed as methanesulfonate salt

COc1cc2c(cc1OC)-c1c/c(=N\c3c(C)cc(C)cc3C)n(CCNC(N)=O)c(=O)n1CC2 [Methanesulfonate, RPL554 methanesulfonate]
D (0.1) (μm) [1]: 0.45 μm | D (0.5) (μm) [1]: 1.20 μm | D (0.9) (μm) [1]: 3.46 μm | †Measured Mass of 1% w/w Blend Delivered per capsule ([2]; Cyclohaler, 5 capsules containing 20 mg powder blend, mass from weight change of capsule-loaded device): 19.96 mg | ††RPL554 Emitted (μg) per capsule (B) ([2]; Cyclohaler, NGI, mass determined from HPLC analysis of recovered samples, as RPL554 base): 118.69 µg | Calculated RPL554 Content (μg) per capsule (A) ([2]; calculated from delivered blend mass and measured blend content, as RPL554 base): 164.72 µg | dissolution compared with free base / other salts ([3]; 2 hour experiments): higher dissolution than the rest of the salts | mass dissolved ([3]; at 8.5 min): 3960 µg | mass dissolved ([3]; at 11 min): 5200 µg | maximum pH change (decrease) during dissolution ([3]; nominal start pH 7): about 0.1 pH units | Mass of salt (μg) dissolved after 2 hours, Average [3, 8]: 225 µg | Mass of salt (μg) dissolved after 2 hours, Test 1 [3, 8]: 160 µg | Mass of salt (μg) dissolved after 2 hours, Test 2 [3, 8]: 290 µg | Solubility as RPL554 (mg/ml) in 0.7 w/w % Saline [4]: 5.01 mg/mL | Solubility as RPL554 (mg/ml) in 0.9 w/w % Saline [4]: 3.73 mg/mL | Solubility as RPL554 (mg/ml) in 1.1 w/w % Saline [4]: 2.52 mg/mL | Solubility as RPL554 (mg/ml) in Water ([4]; deionised water): 44.52 mg/mL | pH of aqueous suspension/solution [5]: 2.69 | Calculated RPL554 solubilised (%) ([6]; in HFA 134): BLQ | Calculated Solubilised RPL554 μg per 50 μL actuation ([6]; in HFA 134): BLQ | Solubility RPL554 (μg/g) ([6]; in HFA 134, BLQ = below limit of quantitation (0.06 μg/mL)): BLQ | Estimated RPL554 solubilised (%) ([6]; in HFA 134 with Ethanol/Tween): 11.64% | Estimated Solubilised RPL554 μg per 50 μL actuation ([6]; in HFA 134 with Ethanol/Tween): 19.38 µg | Solubility RPL554 ([6]; in HFA 134 with Ethanol/Tween): 298.07 µg/g | Solubility RPL554 ([6]; in HFA 134 with Ethanol/Tween, listed as methanesulfonate): 298 µg/g | Calculated RPL554 solubilised (%) ([6]; in HFA 227): BLQ | Calculated Solubilised RPL554 μg per 50 μL actuation ([6]; in HFA 227): BLQ | Solubility RPL554 (μg/g) ([6]; in HFA 227): BLQ | Measured Blend Content (% Theoretical) ([7]; 1% w/w RPL554 variant: lactose powder blend, expressed as RPL554 base): 99.13 % Theoretical | **Adjusted RPL554 Content per capsule ([7]; per 20 mg capsule of 1% w/w lactose blend, adjusted for measured blend content (% theoretical), as RPL554 base): 165.05 µg
